According to article PMC7177833, “2-Aminopyridine Analogs Inhibit Both Enzymes of the Glyoxylate Shunt in Pseudomonas aeruginosa” (International Journal of Molecular Sciences, 2020):
Converted amounts (≈) assume the structure as drawn. Like-named read-outs stand apart in the source and are kept apart here.

Tests used:
P. aeruginosa PAO1 = experiment: Antibacterial growth assay (OD600, 18 h) in LB or M9-acetate; format: cell-based; settings: Pseudomonas aeruginosa; for inhibition at 200 µM: final optical density; for MIC: PAO1, MIC = lowest concentration inhibiting >75% of growth
Experimental: Growth assays were carried out using clear, U-bottom, sterile 96-well plates (Thermo Fisher Scientific, Bishop’s Stortford, UK). P. aeruginosa PAO1 overnight cultures were diluted to a starting OD600 of 0.05 in LB medium or M9 medium supplemented with 0.5% acetate. The test compounds were added to the indicated final concentrations, and the plates were covered with gas-permeable adhesive seals (Scientific Laboratory Supplies, Nottingham, UK). Assay controls included 1% DMSO, a positive antibiotic control (ciprofloxacin, 1 µg/mL), and medium-only wells as a control for background absorbance. […]

[1] = target: T1, ICLPa (isocitrate lyase from P. aeruginosa) (Pseudomonas aeruginosa, UniProt Q9I0K4); experiment: Inhibition of purified ICLPa enzymatic activity; format: biochemical; settings: for IC50: purified enzyme, 170 nM ICL
T1 construct: made in house
T1 sequence (Q9I0K4 1-531): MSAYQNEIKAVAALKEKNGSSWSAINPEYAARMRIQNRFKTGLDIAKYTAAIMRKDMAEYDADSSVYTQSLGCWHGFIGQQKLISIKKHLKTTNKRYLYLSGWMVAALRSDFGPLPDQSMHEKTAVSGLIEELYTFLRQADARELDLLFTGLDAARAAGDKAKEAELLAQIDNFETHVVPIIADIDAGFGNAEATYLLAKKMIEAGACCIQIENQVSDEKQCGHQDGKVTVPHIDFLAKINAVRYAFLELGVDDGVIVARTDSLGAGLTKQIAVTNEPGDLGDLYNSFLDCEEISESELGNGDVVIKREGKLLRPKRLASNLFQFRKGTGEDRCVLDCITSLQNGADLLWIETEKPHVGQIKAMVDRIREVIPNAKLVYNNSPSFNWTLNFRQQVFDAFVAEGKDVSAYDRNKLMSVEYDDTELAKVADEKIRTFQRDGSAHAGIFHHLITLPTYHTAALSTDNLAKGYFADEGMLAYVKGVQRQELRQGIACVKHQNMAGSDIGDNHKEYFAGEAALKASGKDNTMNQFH
Experimental: (§1) The enzymatic activity of purified ICLPa and MSPa was assayed essentially as previously described. Compounds were added to the reaction mixtures (minus substrates) and incubated for 5 min at 37 °C. The enzyme concentration in the reaction mixtures was 170 nM for ICL and 25 nM for MS (based on the concentration of the monomer in each case). […] The reactions were initiated by the addition of pH-adjusted substrates, and the initial rates were recorded as A324 nm (for ICLPa) and A412 nm (for MSPa) using a Biospectrometer (Eppendorf, Stevenage, UK). Substrate turnover was calculated from the molar extinction coefficient of the assay products: Glyoxylate-phenylhydrazone (16,800/M/cm) for ICLPa and 2-nitro-5-thiobenzoic acid (14,150/M/cm) for MSPa.
(§2) All data fitting was performed with GraphPad Prism version 7.04 (GraphPad Software, Inc., La Jolla, CA, USA). The solid lines are the result of fitting the data to the equations denoted in relevant experimental sections. IC50 values were determined by a nonlinear fit using the equation for sigmoidal dose-response with variable slope. In all graphs, unless otherwise stated, the data points are the mean of experimental triplicates, and all error bars correspond to ± standard deviation.

[2] = target: T2, MSPa (malate synthase G from P. aeruginosa) (Pseudomonas aeruginosa, UniProt Q9I636); experiment: Inhibition of purified MSPa enzymatic activity; format: biochemical; settings: for inhibition at 75 µM: 75 µM compound, read-out: Enzyme Inhibition (%) at 75 µM MSPa
T2 construct: made in house
Experimental: as §1, §2

[3] = PAO1, LB medium, read-out: PAO1 Growth Inhibition (%) at 200 µM LB
[4] = PAO1, M9-acetate medium, read-out: PAO1 Growth Inhibition (%) at 200 µM M9ac
[5] = M9 medium with 0.5% acetate, read-out: MIC M9ac
[6] = 75 µM compound, read-out: Enzyme Inhibition (%) at 75 µM ICLPa

T2 sequence (Q9I636 whole entry): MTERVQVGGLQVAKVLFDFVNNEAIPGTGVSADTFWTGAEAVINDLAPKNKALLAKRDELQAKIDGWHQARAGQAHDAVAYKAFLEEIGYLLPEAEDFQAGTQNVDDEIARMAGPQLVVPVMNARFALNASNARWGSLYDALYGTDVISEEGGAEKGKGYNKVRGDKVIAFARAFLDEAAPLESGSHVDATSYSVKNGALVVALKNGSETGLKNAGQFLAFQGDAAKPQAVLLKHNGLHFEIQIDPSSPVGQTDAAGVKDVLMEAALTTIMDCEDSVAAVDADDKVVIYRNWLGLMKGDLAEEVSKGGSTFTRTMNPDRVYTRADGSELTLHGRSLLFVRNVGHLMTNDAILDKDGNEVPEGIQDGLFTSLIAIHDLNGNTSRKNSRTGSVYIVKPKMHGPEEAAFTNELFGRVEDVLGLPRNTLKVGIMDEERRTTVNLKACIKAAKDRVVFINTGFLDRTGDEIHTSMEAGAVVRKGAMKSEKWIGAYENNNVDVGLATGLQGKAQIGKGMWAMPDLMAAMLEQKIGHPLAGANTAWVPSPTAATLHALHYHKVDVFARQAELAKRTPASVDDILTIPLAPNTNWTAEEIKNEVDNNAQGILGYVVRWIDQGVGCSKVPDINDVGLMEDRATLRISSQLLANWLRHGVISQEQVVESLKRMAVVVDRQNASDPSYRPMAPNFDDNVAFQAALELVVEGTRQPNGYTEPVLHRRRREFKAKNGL

Compound | inhibition at 200 µM (P. aeruginosa PAO1; [3]) [%] | inhibition at 200 µM (P. aeruginosa PAO1; [4]) [%] | MIC (P. aeruginosa PAO1; LB medium, read-out: MIC LB) [µM] | MIC (P. aeruginosa PAO1; [5]) [µM] | inhibition at 75 µM [1, 6] [%] | IC50 [1] [µM] | IC50 [2] [µM] | inhibition at 75 µM [2] [%] | Enzyme Inhibition (%) at 75 µM ICLPa ([1]; 75 µM compound) [%] | inhibition at 75 µM ([1]; read-out: Enzyme Inhibition (%) at 75 µM ICLPa, 75 µM compound) [%]
COC(=O)c1ccnc(N/C(=N/C(=O)OC(C)(C)C)NC(=O)OC(C)(C)C)c1 [SB029] | 6 | 45 | > 200 | > 78.9 | 55.9 | 64.7 | > 75 | 0 | – | –
CC(C)(C)OC(=O)/N=C(\NC(=O)OC(C)(C)C)Nc1cc(Br)ccn1 [SB001] | 0 | 48 | > 200 | > 200 | 6.1 | > 75 | > 75 | 16.2 | – | –
C=C(CC(=O)O)C(=O)O [ITA, itaconate, reference compound] | – | – | – | – | – | 24.9 | – | – | 72.6 | ~70
CC(C)(C)OC(=O)/N=C(\NC(=O)OC(C)(C)C)Nc1ccnc(Cl)c1 [SB032] | – | – | – | – | 43.8 | 91.8 | 70.6 | 48.7 | – | –
CC(C)(C)OC(=O)/N=C(\NC(=O)OC(C)(C)C)Nc1cc(C(F)(F)F)ccn1 [SB022] | 0 | 7 | > 200 | > 200 | 4.3 | > 75 | > 75 | 0 | – | –
CC(C)(C)OC(=O)/N=C(\NC(=O)OC(C)(C)C)Nc1cc(F)ccn1 [SB026] | ~23 | 72 | > 200 | 70.9 (≈ 25.1 µg/mL) | 62 | 54.5 | 59.3 | 55.1 | – | –
